Assays:
Assay type in all cases: toxicity, cell-based
HEK-293T = test: Incucyte cell viability with HEK293T; conditions: human, 10 µM, compound concentration 10 uM
Fibroblast = test: Incucyte cell viability with human fibroblast; conditions: 10 µM, compound concentration 10 uM
U2OS = test: Incucyte cell viability with U2OS; conditions: human, 10 µM, compound concentration 10 uM
[1] = 0 h, replicate number 1, timepoint 0 hours
[2] = 0 h, replicate number 2, timepoint 0 hours
[3] = 6 h, replicate number 1, timepoint 6 hours
[4] = 6 h, replicate number 2, timepoint 6 hours
[5] = 12 h, replicate number 2, timepoint 12 hours
[6] = 18 h, replicate number 1, timepoint 18 hours
[7] = 18 h, replicate number 2, timepoint 18 hours
[8] = 24 h, replicate number 1, timepoint 24 hours
[9] = 24 h, replicate number 2, timepoint 24 hours
[10] = 12 h, replicate number 1, timepoint 12 hours
Further: unitless GR value; below 1 slowed growth and below 0 cell loss.

SMILES | Growth Rate (HEK-293T; [1]) | Growth Rate (HEK-293T; [2]) | Growth Rate (HEK-293T; [5]) | Growth Rate (HEK-293T; [6]) | Growth Rate (HEK-293T; [8]) | Growth Rate (Fibroblast; [1]) | Growth Rate (Fibroblast; [10]) | Growth Rate (Fibroblast; [5]) | Growth Rate (Fibroblast; [6]) | Growth Rate (Fibroblast; [7]) | Growth Rate (Fibroblast; [8]) | Growth Rate (Fibroblast; [9]) | Growth Rate (U2OS; [1]) | Growth Rate (U2OS; [3]) | Growth Rate (U2OS; [10]) | Growth Rate (U2OS; [6]) | Growth Rate (U2OS; [8]) | Growth Rate (HEK-293T; [10]) | Growth Rate (Fibroblast; [2]) | Growth Rate (U2OS; [2]) | further results
CCOC(=O)c1c(/C(C#N)=C\N)c2ccc(Cl)c(Cl)c2n1C | 0.5 | 0.59 | 0.77 | 0.9 | 0.99 | 0.69 | 0.64 | 0.53 | 0.47 | 0.72 | 0.29 | 0.73 | -0.21 | 0.29 | 0.64 | 0.5 | 0.73 |  |  |  | Growth Rate (HEK-293T; [3]): 0.56; Growth Rate (HEK-293T; [4]): 0.47; Growth Rate (HEK-293T; [7]): 0.7; Growth Rate (HEK-293T; [9]): 0.93
CN[C@@H](C)C(=O)N[C@H]1CCCC[C@H]2CC[C@@H](C(=O)N[C@@H](c3ccccc3)c3cn(CCCCc4ccc(CCCCn5cc([C@@H](NC(=O)[C@@H]6CC[C@@H]7CCCC[C@H](NC(=O)[C@H](C)NC)C(=O)N76)c6ccccc6)nn5)cc4)nn3)N2C1=O | 0.2 | 0.49 | 0.75 | 0.93 | 0.66 |  | 0.57 | 0.75 |  | 0.88 | 0.71 | 0.81 | -0.18 | 0.83 |  | 0.97 | 1 | 0.73 | 0.01 |  | Growth Rate (HEK-293T; [3]): 0.5; Growth Rate (HEK-293T; [4]): 0.74; Growth Rate (HEK-293T; [7]): 0.8; Growth Rate (HEK-293T; [9]): 0.84; Growth Rate (Fibroblast; [3]): 0.17
CCCCOCCOc1nc(-c2ccc(C(=O)O)c(F)c2)sc1C | 0.61 | 0.25 | 0.88 | 0.94 | 0.95 |  | 0.16 | 0.63 | 0.35 | 0.73 | 0.23 | 0.7 | -0.03 | 0.21 | 0.49 | 0.88 | 0.94 |  | -0.25 | -0.3 | Growth Rate (HEK-293T; [4]): 0.87; Growth Rate (HEK-293T; [7]): 0.82; Growth Rate (HEK-293T; [9]): 0.69; Growth Rate (Fibroblast; [3]): 0.05; Growth Rate (U2OS; [4]): 0.97; Growth Rate (U2OS; [7]): 0.86; Growth Rate (U2OS; [9]): 0.84
Cc1sc2c(c1C)C(c1ccc(Cl)cc1)=N[C@H](CC(=O)OC(C)(C)C)c1nnc(C)n1-2 | 0.38 | 0.63 | 0.95 | 0.85 | 0.81 |  | 0.45 |  | 0.98 |  | 0.98 |  |  | 0.83 | 0.95 | 0.97 | 0.92 |  |  |  | Growth Rate (HEK-293T; [7]): 0.87; Growth Rate (HEK-293T; [9]): 0.86; Growth Rate (Fibroblast; [3]): -0.25
CCc1cc2cc(NS(=O)(=O)c3ccc(C#N)cc3)ccc2n(CC)c1=O | 1 | 0.08 | 0.96 | 0.23 | 0.13 | 0.94 | 0.22 | 0.12 | 0.07 | 0.13 | -0.17 | 0.07 | -0.59 | 0.95 |  | 0.95 | 0.96 | 0.34 |  | -0.07 | Growth Rate (HEK-293T; [3]): 0.21; Growth Rate (HEK-293T; [7]): 0.84; Growth Rate (HEK-293T; [9]): 0.59; Growth Rate (Fibroblast; [3]): 0.31; Growth Rate (Fibroblast; [4]): -0.17; Growth Rate (U2OS; [5]): 0.85; Growth Rate (U2OS; [7]): 0.93
CCCCNNC(=O)c1ccc(Br)cc1 | 0.97 | 0.79 | 0.77 |  |  | 0.73 | 0.37 |  | 0.74 | 0.93 | 0.99 | 0.91 |  |  |  | 0.94 |  | 0.93 | 0.26 | -0.23 | Growth Rate (Fibroblast; [3]): -0.07; Growth Rate (Fibroblast; [4]): 0.86; Growth Rate (U2OS; [5]): 0.99; Growth Rate (U2OS; [9]): 0.91
CN(C)C(=O)Cn1cc(-c2ccc(-c3cncc4ccccc34)cc2)cn1 | 0.84 |  |  | 0.9 | 0.9 |  | 0.27 | 1 | 0.21 | 0.82 | 0.05 | 0.61 | -0.34 | 0.31 | 0.43 | 0.59 | 0.7 | 0.97 |  | 0.27 | Growth Rate (U2OS; [4]): 0.79; Growth Rate (U2OS; [5]): 0.74; Growth Rate (U2OS; [7]): 0.76; Growth Rate (U2OS; [9]): 0.86
Nc1nccc(-c2ccn3c(N)nccc23)n1 | -0.7 | 0.28 |  | 0.93 | 0.76 | -0.59 |  | 0.84 |  | 0.76 |  | 0.72 | 0.63 |  |  |  | 0.98 |  | -0.24 | 0.39 | Growth Rate (HEK-293T; [9]): 1; Growth Rate (U2OS; [4]): 0.89; Growth Rate (U2OS; [5]): 0.92; Growth Rate (U2OS; [7]): 0.85; Growth Rate (U2OS; [9]): 0.82
CN(C)C(=O)Cn1cc(-c2ccc(-c3nnc4ccccn34)cc2)cn1 | 0.69 |  |  | 0.88 | 0.78 | 0.68 | 0.37 | 0.94 | 0.8 | 0.91 | 0.56 | 0.74 | -0.47 | 0.68 | 0.46 | 0.79 | 0.83 | 0.74 | 0.31 | 0.08 | Growth Rate (HEK-293T; [3]): 0.7; Growth Rate (U2OS; [7]): 0.91
CC1=C(C)C(=O)C(C(C)(C)CC(=O)N(CCCCSC[C@H]2O[C@@H](n3cnc4c(N)ncnc43)[C@@H]3OC(C)(C)O[C@@H]32)Cc2cccc(-c3ccc(Cl)cc3)c2)=C(C)C1=O | 0.72 | 0.07 | 0.97 |  | 0.96 | 0.04 |  |  |  |  |  |  | -0.32 |  | 0.3 | 0.49 | 0.63 | 0.85 | 0.08 |  | Growth Rate (HEK-293T; [7]): 0.94; Growth Rate (U2OS; [5]): 0.93; Growth Rate (U2OS; [7]): 0.87; Growth Rate (U2OS; [9]): 0.92
CC(=O)c1cc(-c2ccccc2OCC2CC2)c2ncccn12 | 0.61 |  |  | 0.98 |  |  |  | 0.88 |  |  |  |  | 0.8 | 0.45 |  | 0.98 | 0.98 |  | 0.39 | 0.26 | Growth Rate (Fibroblast; [4]): 0.72; Growth Rate (U2OS; [4]): 0.99
Cc1cc(CN)cc(C)c1-c1ncn(C)c1-c1cncn1C | 0.03 | -0.09 |  |  | 0.89 | 0.66 |  |  |  |  |  |  | -0.39 | 0.65 | 0.71 | 0.74 | 0.73 | 0.88 | -0.16 | 0.16 | Growth Rate (Fibroblast; [3]): 0.41; Growth Rate (U2OS; [4]): 0.66; Growth Rate (U2OS; [5]): 0.95
CC1=C(C)C(=O)C(C(C)(C)CC(=O)N(CCCCSC[C@H]2O[C@@H](n3cnc4c(N)ncnc43)[C@H](O)[C@@H]2O)Cc2cccc(-c3ccc(Cl)cc3)c2)=C(C)C1=O | -0.9 | -1 |  | 0.17 | 0.16 | 0.23 | 0.78 |  |  |  |  |  |  | 0.21 | 0.36 | 0.51 | 0.53 | 0.2 | -0.71 |  | Growth Rate (HEK-293T; [3]): 0.57; Growth Rate (Fibroblast; [3]): -0.29; Growth Rate (Fibroblast; [4]): 0.84; Growth Rate (U2OS; [4]): 0.98; Growth Rate (U2OS; [5]): 0.93; Growth Rate (U2OS; [7]): 0.91; Growth Rate (U2OS; [9]): 0.95
O=C1Nc2ccc(I)cc2/C1=C/c1cc(Br)c(O)c(Br)c1 | -0.08 | 0.11 |  | 0.97 | 0.91 | -0.2 |  |  |  |  |  |  |  |  | 0.89 |  |  |  | 0.15 | -0.15 | 

— ChEMBL document CHEMBL5058564, “EUbOPEN Chemogenomics Library 2 (Incucyte)” (2022)
